Experimental data as given in PubChem BioAssay AID192 (DTP/NCI, 2004).
“And” between values parts separate entries of the source, which are not always exact repeats. Identical values can stand only once. Inconclusive results and toxic doses are left out. Rule for the calls: active = survival T/C of 150% or more; inactive = T/C below 125% in these data.

System: BDF1 mice, B16 melanoma ip, median survival T/C
Assay: NCI In Vivo Anticancer Drug Screen. Data for tumor model B16 Melanoma (intraperitoneal) in B6D2F1 (BDF1) mice
Conditions: endpoint: median survival time, higher = longer survival
Method in brief: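 Tumor-bearing mice received test compound or vehicle. Survival or tumor size was then measured in both groups. The treated-group figure was divided by the control-group figure.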

[1] = dose: 100.0 mg/kg/injection, schedule: Q01DX009 (ip), vehicle: Klucel (hydroxypropylcellulose) (HPC)
[2] = dose: 200.0 mg/kg/injection, schedule: Q01DX009 (ip), vehicle: Klucel (hydroxypropylcellulose) (HPC)
[3] = dose: 400.0 mg/kg/injection, schedule: Q01DX009 (ip), vehicle: Klucel (hydroxypropylcellulose) (HPC)

Measured: T/C

C=C1C(=O)OC2C1CCC(C)C1CCC(=O)OC12C (centres undefined)
inactive: dose: 3.13 mg/kg/injection, schedule: Q01DX009 (ip), vehicle: Klucel (hydroxypropylcellulose) (HPC) 97 % of control | dose: 6.25 mg/kg/injection, schedule: Q01DX009 (ip), vehicle: Klucel (hydroxypropylcellulose) (HPC) 103 % of control | dose: 12.5 mg/kg/injection, schedule: Q01DX009 (ip), vehicle: Klucel (hydroxypropylcellulose) (HPC) 100 % of control | dose: 25.0 mg/kg/injection, schedule: Q01DX009 (ip), vehicle: Klucel (hydroxypropylcellulose) (HPC) 101 % of control

Oc1ccc(C2(c3ccc(O)cc3)CCCCC2)cc1
inactive: dose: 50.0 mg/kg/injection, schedule: Q01DX009 (ip), vehicle: acetone 97 % of control

O=C(O)c1ccccc1C(=O)c1ccc(CBr)cc1
inactive: dose: 0.05 mg/kg/injection, schedule: Q01DX009 (ip), vehicle: saline 100 % of control | dose: 0.1 mg/kg/injection, schedule: Q01DX009 (ip), vehicle: saline 97 % of control | dose: 0.2 mg/kg/injection, schedule: Q01DX009 (ip), vehicle: saline 100 % of control | dose: 0.38 mg/kg/injection, schedule: Q04DX003 (ip), vehicle: saline with Tween-80 91 % of control | dose: 0.75 mg/kg/injection, schedule: Q04DX003 (ip), vehicle: saline with Tween-80 95 % of control | dose: 1.5 mg/kg/injection, schedule: Q01DX009 (ip), vehicle: saline with Tween-80 87 % of control | dose: 1.5 mg/kg/injection, schedule: Q04DX003 (ip), vehicle: saline with Tween-80 100 % of control | dose: 1.56 mg/kg/injection, schedule: Q04DX003 (ip), vehicle: saline with Tween-80 100 % of control

COc1ccccc1NC(=O)Oc1ccc(OCc2ccccc2)cc1
inactive: dose: 100.0 mg/kg/injection, schedule: Q01DX009 (ip), vehicle: saline with Tween-80 105 % of control | dose: 200.0 mg/kg/injection, schedule: Q01DX009 (ip), vehicle: saline with Tween-80 97 % of control | dose: 400.0 mg/kg/injection, schedule: Q01DX009 (ip), vehicle: saline with Tween-80 92 % of control

NCC(=O)NC(CCCN=C(N)N)C(=O)O (centres undefined)
inactive: dose: 50.0 mg/kg/injection, schedule: Q01DX009 (ip), vehicle: saline 103 % of control | dose: 100.0 mg/kg/injection, schedule: Q01DX009 (ip), vehicle: saline 98 % of control | dose: 200.0 mg/kg/injection, schedule: Q01DX009 (ip), vehicle: saline 92 % of control

C/C(=N\O)C(=O)c1ccccc1
inactive: [1] 100 % of control | [2] 100 % of control | [3] 103 % of control

C/C=C(\C)C(=O)OC1C(C)C2(O)C(C=C(CO)CC3(O)C(=O)C(C)=CC32)C2C(C)(C)C12OC(=O)CCCCCCCCC (centres undefined)
inactive: dose: 0.13 mg/kg/injection, schedule: Q01DX009 (ip), vehicle: saline + alcohol 102 % of control and 104 % of control | dose: 0.25 mg/kg/injection, schedule: Q01DX009 (ip), vehicle: saline + alcohol 92 % of control and 94 % of control | dose: 0.5 mg/kg/injection, schedule: Q01DX009 (ip), vehicle: saline + alcohol 92 % of control

COC(=O)[C@H]1[C@H]2C[C@@H]3c4[nH]c5cc(OC)ccc5c4CCN3C[C@H]2C[C@@H](OC(=O)/C=C/c2cc(OC)c(OC)c(OC)c2)[C@@H]1OC
inactive: dose: 0.09 mg/kg/injection, schedule: Q01DX009 (ip), vehicle: Klucel (hydroxypropylcellulose) (HPC) 90 % of control | dose: 0.19 mg/kg/injection, schedule: Q01DX009 (ip), vehicle: Klucel (hydroxypropylcellulose) (HPC) 94 % of control | dose: 0.39 mg/kg/injection, schedule: Q01DX009 (ip), vehicle: Klucel (hydroxypropylcellulose) (HPC) 94 % of control and 100 % of control | dose: 0.78 mg/kg/injection, schedule: Q01DX009 (ip), vehicle: Klucel (hydroxypropylcellulose) (HPC) 86 % of control and 90 % of control | dose: 1.56 mg/kg/injection, schedule: Q01DX009 (ip), vehicle: Klucel (hydroxypropylcellulose) (HPC) 87 % of control and 93 % of control

COc1ccc(CCN2CSC(=S)N(CCc3ccc(OC)c(OC)c3)C2)cc1OC
inactive: [1] 106 % of control | [2] 95 % of control | [3] 95 % of control

O.O.[NH-]C1CCCCC1[NH-].[Pt+2] (centres undefined)
inactive: dose: 0.62 mg/kg/injection, schedule: Q01DX009 (ip), vehicle: dextrose 91 % of control and 111 % of control | dose: 1.25 mg/kg/injection, schedule: Q01DX009 (ip), vehicle: dextrose 118 % of control | dose: 1.25 mg/kg/injection, schedule: Q01DX009 (ip), vehicle: other 120 % of control | dose: 2.5 mg/kg/injection, schedule: Q01DX009 (ip), vehicle: dextrose 124 % of control | dose: 2.5 mg/kg/injection, schedule: Q01DX009 (ip), vehicle: other 120 % of control
active: dose: 10.0 mg/kg/injection, schedule: Q01DX009 (ip), vehicle: other 155 % of control

COc1cc2c3c(c4ccc(OC)c(OC)c4c2cc1OC)CN1CCC[C@@H]1C3
inactive: dose: 2.0 mg/kg/injection, schedule: Q01DX009 (ip), vehicle: saline with Tween-80 97 % of control | dose: 4.0 mg/kg/injection, schedule: Q01DX009 (ip), vehicle: saline with Tween-80 89 % of control | dose: 8.0 mg/kg/injection, schedule: Q01DX009 (ip), vehicle: saline with Tween-80 102 % of control and 118 % of control | dose: 16.0 mg/kg/injection, schedule: Q01DX009 (ip), vehicle: saline with Tween-80 106 % of control

Cc1cccc(NC(=O)Nc2ccccc2)c1C
inactive: [1] 100 % of control
